Measured values reported in patent publication US9386769B2 (HUNAN RESEARCH INSTITUTE OF CHEMICAL INDUSTRY CO., LTD., priority 2011, dated 2016).
Like-named read-outs stand apart in the source and are kept apart here.

Legend:
[1] = test system: Echinochloa crus-galli; test: Herbicidal activity, pre-emergence pot test, Echinochloa crus-galli; format: in vivo; conditions: 150 g a.i./mu, 15 to 25 days after treatment
Source text: (§1) Bioassay method: (1) Plastic pots (about 64 cm^2) were filled with soil and placed in a stainless steel basin, seeds with the same size and plumpness of monocotyledonous weeds such as Digitaria sanguinalis, Echinochloa crus-galli, Setaria viridis and Dicotyledonous weeds such as Abutilon theophrasti or Stelleria media or Solanum nigrum, Chenopodium album, Amaranthus ascedene or Amaranthus retroflexus were sown in one-third of the pot area with the soil depth of 1 cm in two different pots separately and grown to the desired leaf stage in a greenhouse wherein water is added to the stainless steel basin until the full infiltration of soils from the bottom of pots; (2) Test compounds represented by the general formula (I) were formulated by using N,N-dimethylformamide as solvent and a small amount of Tween 80 as emulsification agent, then diluted to the required test concentrations with water, using the control group tested with corresponding solvent and water only; (3) the required test solutions were applied for pre-emergence treatment 24 hr after the weeds were sown, for postemergence treatment, monocotyledonous weeds were treated at the 1-leaf stage and dicotyledonous weeds were treated at 2 leaf stage; (4) the pre- and postemergence application rates were 150 g a.i./mu, using the control group with corresponding solvent or water respectively; (5) Treatments were kept in greenhouse for cultivation; (6) Herbicidal activities were evaluated visually 15 to 25 days after treatment, on the basis of the survey results, the weed control effect can be calculated by the following formula: efficacy (%)=(the height of the weed in the control group−the height of the weed in the test group) (the height of the weed in the control group).

[2] = test system: Setaria viridis; test: Herbicidal activity, pre-emergence pot test, Setaria viridis; format: in vivo; conditions: 150 g a.i./mu, 15 to 25 days after treatment
Source text: as §1

[3] = test system: Amaranthus spinosus; test: Herbicidal activity, pre-emergence pot test, Amaranthus spinosus; format: in vivo; conditions: 150 g a.i./mu, 15 to 25 days after treatment
Source text: as §1

[4] = test system: Chenopodium album; test: Herbicidal activity, pre-emergence pot test, Chenopodium album; format: in vivo; conditions: 150 g a.i./mu, 15 to 25 days after treatment
Source text: as §1

[5] = test system: Digitaria sanguinalis; test: Herbicidal activity, pre-emergence pot test, Digitaria sanguinalis; format: in vivo; conditions: 150 g a.i./mu, 15 to 25 days after treatment
Source text: as §1

[6] = test system: Abutilon; test: Herbicidal activity, pre-emergence pot test, Abutilon; format: in vivo, Abutilon theophrasti; conditions: 150 g a.i./mu, 15 to 25 days after treatment
Source text: as §1

[7] = test system: Botrytis cinerea; test: Fungicidal activity against Botrytis cinerea, mycelial growth inhibition on PDA plate; format: cell-based; conditions: for activities against Botrytis cinerea (growth inhibition rating) / inhibition at 25 µg/mL: 25 mg/L; for inhibition at 25 µg/mL: read-out: activities against Botrytis cinerea (growth inhibition rating)
Experimental: (§2) Bioassay method: Stock solution of every test compound was prepared in an appropriate solvent such as N,N-dimethylformamide (DMF), and then diluted to the required test concentrations with sterile water containing 0.1% Tween 80; Pipetted 3 mL of test solution to 27 mL of potato dextrose agar (PDA) medium at 45° C. and poured into a Petri dish to prepare a plate after shaking thoroughly; 6 mm of diameter of fungi cake from the edge of 7-day-old […] colony was inoculated on the central of the plate, wherein mycelium facing down, and cultured in the culture tank at 28° C. The diameter of fungi spread was calculated 4 days later using the control group tested with the diluent only. Test was run 4 times. Data were subjected to EXCEL statistical software analysis and the growth inhibition of the tested compound was calculated according to the corresponding control, the activity was rated on the basis of percentage of growth inhibition using the following rating system: A, inhibition (%)>90; B, 90≧inhibition (%)>70; C, 70≧inhibition (%)>50; D, inhibition (%)≦50.
Fungicidal activities against Botrytis cinerea of compounds represented by the general formula (I) were evaluated with the corresponding method in Example 18, and some of the test results are shown in Table 6 to Table 8.

[8] = test system: Alternaria alternata; test: Fungicidal activity against Alternaria alternata, mycelial growth inhibition on PDA plate; format: cell-based; conditions: Alternaria alternata; 25 mg/L; read-out: activities against Alternaria alternata (growth inhibition rating)
Experimental: as §2
Fungicidal activities against Alternaria alternata of compounds represented by the general formula (I) were evaluated with the corresponding method in Example 18, and some of the test results are shown in Table 9 to Table 10.

[9] = test system: Sclerotinia sclerotiorum; test: Fungicidal activity against Sclerotinia sclerotiorum, mycelial growth inhibition on PDA plate; format: cell-based; conditions: for inhibition at 25 µg/mL: read-out: activities against Sclerotinia sclerotiorum (growth inhibition rating)
Experimental: as §2

[10] = test system: Tetranychus urticae; test: Acaricidal activity against Tetranychus urticae, dipping of horsebean seedlings; format: in vivo
Experimental: Bioassay method: Stock solution of every test compound was prepared in an appropriate solvent such as N,N-dimethylformamide, and a small amount of Tween 80 was added as emulsification agent, then diluted to the required test concentrations with distilled water, using the control group tested with distilled water only. 100 to 200 adults of Tetranychus urticae were transferred to well-growing horsebean seedlings and 24 hr later, horsebean seedlings with Tetranychus urticae were dipped in the test solution for 10 s, then allowed to dry with filter paper and transplanted to the beaker containing water and kept in a room for normal cultivation. Each assay contained three replications, and results were averaged. Mortality was assessed 24 hr after the treatment. The activity was rated on the basis of mortality using the following rating system: A, mortality>90; B, 90≧mortality>70; C, 70≧mortality>50; D, mortality≦50.

[11] = test system: Marssonina coronaria; test: Fungicidal activity against Marssonina coronaria; format: cell-based; conditions: 25 mg/L
Experimental: as §2

[12] = test system: Sphaceloma ampelinum; test: Fungicidal activity against Sphaceloma ampelinum; format: cell-based; conditions: 25 mg/L
Experimental: as §2

[13] = test system: Cercospora arachidicola; test: Fungicidal activity against Cercospora arachidicola; format: cell-based; conditions: 25 mg/L
Experimental: as §2

[14] = test system: Alternaria solani; test: Fungicidal activity against Alternaria solani; format: cell-based; conditions: 25 mg/L
Experimental: as §2

[15] = test system: Alternaria mali; test: Fungicidal activity against Alternaria mali; format: cell-based; conditions: 25 mg/L
Experimental: as §2

[16] = test system: Fusarium oxysporum; test: Fungicidal activity against Fusarium oxysporum; format: cell-based; conditions: 25 mg/L
Experimental: as §2

[17] = Sclerotinia sclerotiorum, 1.25 mg/L, Table 4, read-out: activities against Sclerotinia sclerotiorum (growth inhibition)
[18] = Sclerotinia sclerotiorum, 2.5 mg/L, Table 4, read-out: activities against Sclerotinia sclerotiorum (growth inhibition)
[19] = Sclerotinia sclerotiorum, 5 mg/L, Table 4, read-out: activities against Sclerotinia sclerotiorum (growth inhibition)
[20] = Sclerotinia sclerotiorum, 10 mg/L, Table 4, read-out: activities against Sclerotinia sclerotiorum (growth inhibition)
[21] = Sclerotinia sclerotiorum, 25 mg/L
[22] = Botrytis cinerea, 1.25 mg/L, Table 7, read-out: activities against Botrytis cinerea (growth inhibition)
[23] = Botrytis cinerea, 2.5 mg/L, Table 7, read-out: activities against Botrytis cinerea (growth inhibition)
[24] = Botrytis cinerea, 5 mg/L, Table 7, read-out: activities against Botrytis cinerea (growth inhibition)
[25] = Botrytis cinerea, 10 mg/L, Table 7, read-out: activities against Botrytis cinerea (growth inhibition)

CCN(Cc1cnc(Cl)s1)c1nc(SC)ccc1[N+](=O)[O-] [Compound 18]
herbicidal activity (efficacy), Echinochloa crus-galli [1]: 80% | herbicidal activity (efficacy), Setaria viridis [2]: 80% | herbicidal activity (efficacy), Amaranthus spinosus [3]: 0% | herbicidal activity (efficacy), Chenopodium album [4]: 0% | herbicidal activity (efficacy), Digitaria sanguinalis [5]: 90% | herbicidal activity (efficacy), Abutilon [6]: 0% | activities against Botrytis cinerea (growth inhibition rating) [7]: B (B, 90≧inhibition (%)>70)

CNc1ccc([N+](=O)[O-])c(N(C)Cc2cnc(Cl)s2)n1 [Compound 20]
herbicidal activity (efficacy), Echinochloa crus-galli [1]: 70% | herbicidal activity (efficacy), Setaria viridis [2]: 70% | herbicidal activity (efficacy), Amaranthus spinosus [3]: 90% | herbicidal activity (efficacy), Chenopodium album [4]: 90% | herbicidal activity (efficacy), Digitaria sanguinalis [5]: 70% | herbicidal activity (efficacy), Abutilon [6]: 70%

CN(C)c1ccc([N+](=O)[O-])c(N(C)Cc2cnc(Cl)s2)n1 [Compound 23]
herbicidal activity (efficacy), Echinochloa crus-galli [1]: 0% | herbicidal activity (efficacy), Setaria viridis [2]: 0% | herbicidal activity (efficacy), Amaranthus spinosus [3]: 80% | herbicidal activity (efficacy), Chenopodium album [4]: 80% | herbicidal activity (efficacy), Digitaria sanguinalis [5]: 0% | herbicidal activity (efficacy), Abutilon [6]: 70% | activities against Botrytis cinerea (growth inhibition rating) [7]: B (B, 90≧inhibition (%)>70)

C#CCOc1ccc([N+](=O)[O-])c(N(CC)Cc2cnc(Cl)s2)n1 [Compound 25, 6-propargyloxy-N-((2-chlorothiazole-5-yl)methyl)-N-ethyl-3-nitropyridine-2-amine]
inhibition at 25 µg/mL [8]: 70 to 90% | inhibition at 1.25 µg/mL [9, 17]: 78% | inhibition at 2.5 µg/mL [9, 18]: 84% | inhibition at 5 µg/mL [9, 19]: 90% | inhibition at 10 µg/mL [9, 20]: 96% | inhibition at 25 µg/mL [9, 21]: > 90% | mortality at 500 µg/mL ([10]; Tetranychus urticae, 24 h, read-out: activities against Tetranychus urticae (mortality rating)): 50 to 70% | inhibition at 1.25 µg/mL [7, 22]: 85% | inhibition at 2.5 µg/mL [7, 23]: 90% | inhibition at 5 µg/mL [7, 24]: 93% | inhibition at 10 µg/mL [7, 25]: 97% | inhibition at 25 µg/mL ([7]; Botrytis cinerea): > 90%

CCN(Cc1cnc(Cl)s1)c1nc(N(C)C)ccc1[N+](=O)[O-] [Compound 28, 6-dimethylamino-N-((2-chlorothiazole-5-yl)methyl)-N-ethyl-3-nitropyridine-2-amine]
inhibition at 1.25 µg/mL [9, 17]: 42% | inhibition at 2.5 µg/mL [9, 18]: 64% | inhibition at 5 µg/mL [9, 19]: 82% | inhibition at 10 µg/mL [9, 20]: 90% | inhibition at 25 µg/mL [9, 21]: > 90% | melting point: 74.6 to 78.4 °C | inhibition at 1.25 µg/mL [7, 22]: 79% | inhibition at 2.5 µg/mL [7, 23]: 86% | inhibition at 5 µg/mL [7, 24]: 91% | inhibition at 10 µg/mL [7, 25]: 96% | inhibition at 25 µg/mL ([7]; Botrytis cinerea): > 90%

C=CCOc1ccc([N+](=O)[O-])c(N(CC)Cc2cnc(Cl)s2)n1 [Compound 29, 6-allyloxy-N-((2-chlorothiazole-5-yl)methyl)-N-ethyl-nitropyridine-2-amine]
activities against Sclerotinia sclerotiorum (growth inhibition) ([9]; 1.25 mg/L, Table 4): 63% | activities against Sclerotinia sclerotiorum (growth inhibition) ([9]; 2.5 mg/L, Table 4): 72% | activities against Sclerotinia sclerotiorum (growth inhibition) ([9]; 5 mg/L, Table 4): 79% | activities against Sclerotinia sclerotiorum (growth inhibition) ([9]; 10 mg/L, Table 4): 83% | activities against Sclerotinia sclerotiorum (growth inhibition rating) ([9]; 25 mg/L): A (A, inhibition (%)>90) | activities against Tetranychus urticae (mortality rating) ([10]; 500 mg/L, mortality 24 hr after the treatment): C (C, 70≧mortality>50) | activities against Botrytis cinerea (growth inhibition) ([7]; 1.25 mg/L, Table 7): 62% | activities against Botrytis cinerea (growth inhibition) ([7]; 2.5 mg/L, Table 7): 67% | activities against Botrytis cinerea (growth inhibition) ([7]; 5 mg/L, Table 7): 73% | activities against Botrytis cinerea (growth inhibition) ([7]; 10 mg/L, Table 7): 80% | activities against Botrytis cinerea (growth inhibition rating) [7]: A (A, inhibition (%)>90)

CC12CC1(C)C(=O)N(c1cc(Cl)cc(Cl)c1)C2=O (stereo not drawn) [Procymidone, reference compound]
activity against Marssonina coronaria [11]: 75% | activity against Sphaceloma ampelinum [12]: 96% | activity against Cercospora arachidicola [13]: 85% | inhibition at 0.1562 µg/mL ([9]; Sclerotinia sclerotiorum, 0.1562 mg/L, Table 5, read-out: activities against Sclerotinia sclerotiorum (growth inhibition)): 34% | inhibition at 0.3125 µg/mL ([9]; Sclerotinia sclerotiorum, 0.3125 mg/L, Table 5, read-out: activities against Sclerotinia sclerotiorum (growth inhibition)): 63% | inhibition at 0.625 µg/mL ([9]; Sclerotinia sclerotiorum, 0.625 mg/L, Table 5, read-out: activities against Sclerotinia sclerotiorum (growth inhibition)): 66% | inhibition at 1.255 µg/mL ([9]; Sclerotinia sclerotiorum, 1.255 mg/L, Table 5, read-out: activities against Sclerotinia sclerotiorum (growth inhibition)): 76% | inhibition at 2.5 µg/mL ([9]; Sclerotinia sclerotiorum, 2.5 mg/L, Table 5, read-out: activities against Sclerotinia sclerotiorum (growth inhibition)): 79% | inhibition at 5 µg/mL ([9]; Sclerotinia sclerotiorum, 5 mg/L, Table 5, read-out: activities against Sclerotinia sclerotiorum (growth inhibition)): 93% | activity against Alternaria solani [14]: 94% | activity against Alternaria mali [15]: 82% | activity against Fusarium oxysporum [16]: 38% | inhibition at 0.1562 µg/mL ([7]; Botrytis cinerea, 0.1562 mg/L, Table 8, read-out: activities against Botrytis cinerea (growth inhibition)): 46% | inhibition at 0.3125 µg/mL ([7]; Botrytis cinerea, 0.3125 mg/L, Table 8, read-out: activities against Botrytis cinerea (growth inhibition)): 67% | inhibition at 0.625 µg/mL ([7]; Botrytis cinerea, 0.625 mg/L, Table 8, read-out: activities against Botrytis cinerea (growth inhibition)): 75% | inhibition at 1.255 µg/mL ([7]; Botrytis cinerea, 1.255 mg/L, Table 8, read-out: activities against Botrytis cinerea (growth inhibition)): 83% | inhibition at 2.5 µg/mL ([7]; Botrytis cinerea, 2.5 mg/L, Table 8, read-out: activities against Botrytis cinerea (growth inhibition)): 93% | inhibition at 5 µg/mL ([7]; Botrytis cinerea, 5 mg/L, Table 8, read-out: activities against Botrytis cinerea (growth inhibition)): 100%
